Tests used:
ERK1 = biological target: T1, ERK1 (Homo sapiens, UniProt P27361); experiment: ERK1 enzyme activity test (ADP-Glo Kinase Assay); format: biochemical; conditions: chemiluminescence
T1 construct: purchased R&D 1879-KS-010
Description: (§1) The purpose of this experiment is to detect the inhibitory ability of the compounds on the ERK1 enzyme activity and evaluate the activity of the compounds in vitro according to IC50. The ADP-Glo™ Kinase Assay Kit was used in this experiment. Under the action of enzyme, the substrate was phosphorylated and ADP was produced at the same time. The ADP-Glo Reagent was added to remove unreacted ATP in the reaction system. The kinase detection reagent was used to detect the ADP produced by the reaction. In the presence of the compound, the inhibition rate of the compound was calculated by measuring the signal value.
Enzyme and substrate preparation: ERK1 (1879-KS-010, R&D) and substrate (AS-61777, anaspec) were prepared to be 0.75 ng/μl and 100 μM respectively in the buffer. The enzyme solution and substrate solution were then prepared into a mixed solution at a volume ratio of 2:1 for later use. ATP was diluted to 300 μM with the buffer. The compounds were dissolved in DMSO (dimethyl sulfoxide, Shanghai Titan Scientific Co., Ltd.) to prepare a stock solution with an initial concentration of 20 mM, and then Bravo was used to prepare solutions of the compounds. Finally, a 3 μL of a mixed solution of enzyme and substrate, and 1 μL of different concentrations of the compound (the initial concentration is 50 μM, 4-fold dilution) were added to each well of the 384-well plate, and the plate was incubated at 30° C. for 10 minutes, and finally 1 μL of 300 μM ATP solution was added to each well, and the plate was incubated at 30° C. for 2 hours. Then 5 μL of ADP-Glo was added, and the plate was incubated at 30° C. for 40 minutes. Then 10 μL of Kinase detection buffer was added, and the plate was incubated at 30° C. for 40 minutes. The 384-well plate was taken out and placed in a microplate reader (BMG labtech, PHERAstar FS), and the chemiluminescence was measured by the microplate reader.
(§2) The data were processed and analyzed with Microsoft Excel, Graphpad Prism 5.

ERK2 = biological target: T2, ERK2 (Homo sapiens, UniProt P28482); experiment: ERK2 enzyme activity test (ADP-Glo Kinase Assay); format: biochemical; conditions: chemiluminescence
T2 construct: purchased R&D 1230-KS-010
T2 sequence (P28482 whole entry): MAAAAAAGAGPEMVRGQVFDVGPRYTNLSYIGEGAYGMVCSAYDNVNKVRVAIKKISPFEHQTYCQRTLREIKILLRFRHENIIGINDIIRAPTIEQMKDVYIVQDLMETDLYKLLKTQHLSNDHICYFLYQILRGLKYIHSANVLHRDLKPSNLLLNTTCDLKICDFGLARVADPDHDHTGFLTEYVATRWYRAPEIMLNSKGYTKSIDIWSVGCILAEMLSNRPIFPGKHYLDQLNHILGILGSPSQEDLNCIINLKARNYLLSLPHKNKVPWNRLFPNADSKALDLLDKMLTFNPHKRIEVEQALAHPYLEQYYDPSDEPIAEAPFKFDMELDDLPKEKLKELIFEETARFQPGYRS
Description: as §1, with “ERK2” for “ERK1”
Enzyme and substrate preparation: ERK2 (1230-KS-010, R&D) and substrate (Custom peptides, Gill Biochemical) were prepared to be 0.75 ng/μl and 1500 μM in the buffer (40 mM Tris, 20 mM MgCl2, 0.1 mg/mL BSA, 50 μM DTT). The enzyme solution and substrate solution were then prepared into a mixed solution at a volume ratio of 2:1 for later use. ATP was diluted to 500 μM with the buffer. The compounds were dissolved in DMSO (dimethyl sulfoxide, Shanghai Titan Scientific Co., Ltd.) to prepare a stock solution with an initial concentration of 20 mM, and then Bravo was used to prepare solutions of the compounds. Finally, a 3 μL of a mixed solution of enzyme and substrate, and 1 μL of different concentrations of the compound (the initial concentration is 50 μM, 4-fold dilution) were added to each well of the 384-well plate, and the plate was incubated at 30° C. for 10 minutes, and finally 1 μL of 500 μM ATP solution was added to each well, and the plate was incubated at 30° C. for 2 hours. Then 5 μL of ADP-Glo was added, and the plate was incubated at 30° C. for 40 minutes. Then 10 μL of Kinase detection buffer was added, and the plate was incubated at 30° C. for 40 minutes. The 384-well plate was taken out and placed in a microplate reader (BMG labtech, PHERAstar FS), and the chemiluminescence was measured by the microplate reader.
as §2

Colo205 cells = experiment: In vitro proliferation inhibition test on Colo205 tumor cells (CellTiter-Glo); format: cell-based; conditions: Homo sapiens, COLO 205, 72 h; Colo205 cell proliferation, 3 days of culture, CTG
Description: The purpose of this experiment is to test the inhibitory activity of the compounds on the proliferation of Colo205 cells (CCL-222, ATCC) in vitro. The cells were treated with different concentrations of compounds in vitro. After 3 days of culture, the cell proliferation was detected using CTG (CellTiter-Glo® Luminescent Cell Viability Assay, Promega, catalog number: G7573) reagent. The in vitro activity of the compounds was evaluated according to the IC50 value.
In the following, taking the in vitro proliferation inhibition test method of Colo205 cells as an example, the method in the present disclosure for testing the in vitro proliferation inhibitory activity of the compounds of the present disclosure is described. This method is also applicable to, but not limited to, the in vitro proliferation inhibitory activity test on other tumor cells.
Colo205 cells were digested, centrifuged and then resuspended. The single cell suspension was mixed well, and the density of viable cells was adjusted to 5.0×10^4 cells/ml with cell culture medium (RPMI1640+2% FBS), and 95 μl/well was added to a 96-well cell culture plate. Only 100 μl medium was added to the peripheral wells of the 96-well plate. The culture plate was incubated in an incubator for 24 hours (37° C., 5% CO2).
The compound was dissolved in DMSO (dimethyl sulfoxide, Shanghai Titan Scientific Co., Ltd.) and prepared into a stock solution with an initial concentration of 20 mM. The initial concentration of the small molecule compound is 2 mM, and then 4-fold diluted into to 9 points, and the tenth point is DMSO. Another 96-well plate was taken, 90 μl of cell culture medium (RPMI1640+2% FBS) was added to each well, then 10 μl of different concentrations of the test sample was added to each well, the mixture was mixed well, and then 5 μl of different concentrations of the test sample was added to the cell culture plate, and each sample has two duplicate holes. The culture plate was incubated in the incubator for 3 days (37° C., 5% CO2). The 96-well cell culture plate was taken out, 50 μl CTG solution was added to each well, and the plate was incubated for 10 minutes at room temperature. In a microplate reader (BMG labtech, PHERAstar FS), chemiluminescence was measured with the microplate reader.
as §2

[1] = Pharmacokinetics assay in mice; format: in vivo; conditions: mouse, po, C57 mice (female), intragastric, 2 mg/kg, plasma
Description: Mice were used as the test animal. The drug concentration in plasma at different time points was determined by LC/MS/MS method after administration of compound 3-P2, compound 4-P2, compound 9-P2, compound 10-P2, compound 12 and compound 15. The pharmacokinetic behavior of the compounds of the present disclosure in mice was studied, and the pharmacokinetic characteristics were evaluated.
54 of C57 mice (female) were equally divided into 6 groups, which were purchased from Shanghai Jiesijie Laboratory Animal Co., Ltd., with the animal production license number: SOCK (Shanghai) 2013-0006.
A certain amount of compound was weighted, followed by the addition of 5% volume of DMSO and 5% Tween 80 to dissolve it, then followed by the addition of 90% normal saline to prepare a colorless and clear solution of 0.1 mg/mL.
After an overnight fast, C57 mice were intragastrically administered the test compound at an administration dose of 2 mg/kg and an administration volume of 0.2 ml/10 g.
The mice were intragastrically administered the test compounds. 0.1mL of blood was taken before the administration and at 0.25, 0.5, 1.0, 2.0, 4.0, 6.0, 8.0, 11.0, 24.0 hours after the administration. The blood was placed in a heparinized test tube, and centrifuged at 3500 rpm for 10 minutes. The plasma was separated and stored at −20° C.
The content of the test compound in the plasma of mice after […] administration of the test compound at different concentrations was determined: 25 μl of mouse plasma at each time point after the administration was taken, followed by the addition of 50 μl of the internal standard camptothecin solution (100 ng/mL) and 200 μl of acetonitrile. The resulting solution was vortex-mixed for 5 minutes, and centrifuged for 10 minutes (4000 rpm). 4μl of the supernatant was taken from the plasma samples for LC/MS/MS analysis.

T1 sequence (P27361 whole entry): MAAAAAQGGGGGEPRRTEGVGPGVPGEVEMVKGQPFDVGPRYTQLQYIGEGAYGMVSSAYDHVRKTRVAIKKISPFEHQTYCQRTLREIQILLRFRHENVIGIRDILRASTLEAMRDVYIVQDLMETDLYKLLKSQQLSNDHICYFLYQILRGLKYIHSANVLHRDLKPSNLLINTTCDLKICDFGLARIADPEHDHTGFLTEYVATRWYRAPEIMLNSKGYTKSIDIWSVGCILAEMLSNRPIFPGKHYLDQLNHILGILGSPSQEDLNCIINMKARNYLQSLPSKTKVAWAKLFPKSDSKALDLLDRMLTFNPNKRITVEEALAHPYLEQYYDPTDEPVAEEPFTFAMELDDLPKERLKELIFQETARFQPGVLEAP

IC50 (ERK1): 4 nM | IC50 (ERK2): 3 nM | IC50 (Colo205 cells): 49 nM | Vd/F ([1]; read-out: Apparent distribution volume Vz/F): 1.76 L/kg | AUC ([1]; read-out: Area under curve AUC): 1830 ng·h/mL | CL/F ([1]; read-out: Clearance CLz/F): 18.2 mL/min/kg | half-life ([1]; read-out: Half Life T1/2 (converted)): 1.11 h | Cmax ([1]; read-out: Plasma Concentration Cmax): 1070 ng/mL | MRT ([1]; read-out: Residence Time MRT): 1.85 h
SMILES: COc1cc(F)cc([C@@H](CO)NC(=O)[C@@H](C)N2CCc3sc(-c4ccnc(Nc5ccnn5C)n4)cc3C2=O)c1 [Example 15, (R)-N-((S)-1-(3-Fluoro-5-methoxyphenyl)-2-hydroxyethyl)-2-(2-(2-((1-methyl-1H-pyrazol-5-yl)amino)pyrimidin-4-yl)-4-oxo-6,7-dihydrothieno[3,2-c]pyridin-5(4H)-yl)propionamide]

Reference: patent US20220213119A1, “THIENOHETEROCYCLIC DERIVATIVE, PREPARATION METHOD THEREFOR AND MEDICAL USE THEREOF” (Jiangsu Hengrui Medicine Ca, Lid., priority 2019, published 2022)
